In turn, `Cc1cc(SC(C)C)c(NC(=O)CCCCCSc2nc3c(C)c(Cl)cc(C(C)C)c3o2)c(SC(C)C)n1` [Compound No. 1301, 6-(5-chloro-7-isopropyl-4-methylbenzoxazol-2-ylthio)-N-[2,4-bis(isopropylthio)-6-methyl-3-pyridyl]hexanamide] registered a melting point of 99 to 101 °C.
Take `Cc1cc(SC(C)C)c(NC(=O)CCCCCCSc2nc3c(C)c(Cl)cc(C(C)C)c3o2)c(SC(C)C)n1` [Compound No. 1302, 7-(5-chloro-7-isopropyl-4-methylbenzoxazol-2-ylthio)-N-[2,4-bis(isopropylthio)-6-methyl-3-pyridyl]heptanamide]: the melting point lay within 91 to 93 °C.
In the case of `CCSc1cc(C)nc(SCC)c1NC(=O)CSc1nc2cccc(S(C)(=O)=O)c2o1` [Compound No. 1317, 2-(7-methansulfonylbenzoxazol-2-ylthio)-N-[2,4-bis(ethylthio)-6-methyl-3-pyridyl]acetamide] it was 159 to 162 °C; in that of `CSc1nc(SC)c(NC(=O)CCCCCSc2nc3ccccc3o2)c(SC)n1` [Compound No. 1401, 6-(benzoxazol-2-ylthio)-N-[2,4,6-tris(methylthio)-5-pyrimidyl]hexanamide], 149 to 153 °C.
As for `CCSc1cc(C)nc(SCC)c1NC(=O)CSc1nc2cccc(C(=O)OC)c2o1` [Compound No. 1427, 2-(7-methoxycarbonylbenzoxazol-2-ylthio)-N-[2,4-bis(ethylthio)-6-methyl-3-pyridyl]acetamide], the melting point is 168 to 169 °C.
In turn, `CSc1cc(C)nc(SC)c1NC(=O)CCCCCCCSc1nc2c(C)c(Cl)cc(C(C)C)c2o1` [Example 95, 8-(5-chloro-7-isopropyl-4-methylbenzoxazol-2-ylthio)-N-[2,4-bis(methylthio)-6-methyl-3-pyridyl]octanamide] showed a melting point of 128 to 131 °C.
Molecule `CSc1ncccc1NC(=O)CCCCCSc1nc2ccccc2o1` [compound 5, 6-(benzoxazol-2-ylthio)-N-(2-methylthio-3-pyridyl)hexanamide] had a melting point of 127 to 128 °C.
On to `CSc1ncccc1NC(=O)CCCCCSc1nc2ccccc2s1` [compound 15, 6-(benzothiazol-2-ylthio)-N-(2-methylthio-3-pyridyl)hexanamide], for which the melting point was in the range of 118 to 119 °C.
In the case of `CSc1ncccc1NC(=O)CCCCCCCCSc1nc2ccccc2s1` [compound 18, 9-(benzothiazol-2-ylthio)-N-(2-methylthio-3-pyridyl)nonanamide] it was 107 to 108 °C; in that of `CSc1ncccc1NC(=O)CCCCCSc1nc2ccccc2[nH]1` [compound 25, 6-(benzimidazol-2-ylthio)-N-(2-methylthio-3-pyridyl)hexanamide], 121 to 123 °C.
Molecule `CSc1nccc(C)c1NC(=O)CCCCCCCCSc1nc2ccccc2o1` [compound 158, 9-(benzoxazol-2-ylthio)-N-(4-methyl-2-methylthio-3-pyridyl)nonanamide] showed a melting point of 91 to 92 °C.
Turning to `CSc1nc(C)ccc1NC(=O)CCCCCSc1nc2ccccc2o1` [compound 455, 6-(benzoxazol-2-ylthio)-N-(6-methyl-2-methylthio-3-pyridyl)hexanamide], the melting point is 140 to 141 °C.
Take `CSc1nc(C)ccc1NC(=O)CCCCCCCCSc1nc2ccccc2o1` [compound 458, 9-(benzoxazol-2-ylthio)-N-(6-methyl-2-methylthio-3-pyridyl)nonanamide]: the melting point was in the range of 99 to 100 °C.
`CSc1nc(C)ccc1NC(=O)CCCCCSc1nc2ccccc2s1` [compound 465, 6-(benzothiazol-2-ylthio)-N-(6-methyl-2-methylthio-3-pyridyl)hexanamide] registered a melting point of 122 to 123 °C.
Molecule `CSc1nc(C)ccc1NC(=O)CCCCCCCCSc1nc2ccccc2s1` [compound 468, 9-(benzothiazol-2-ylthio)-N-(6-methyl-2-methylthio-3-pyridyl)nonanamide] had a melting point of 104 to 105 °C.
For `CSc1nc(C)ccc1NC(=O)CCCCCSc1nc2ccccc2[nH]1` [compound 475, 6-(benzimidazol-2-ylthio)-N-(6-methyl-2-methylthio-3-pyridyl)hexanamide] the value was 138 to 140 °C; for `CSc1cc(C)nc(SC)c1NC(=O)CSc1nc2ccccc2o1` [compound 781, 2-(benzoxazol-2-ylthio)-N-[2,4-bis(methylthio)-6-methyl-3-pyridyl]acetamide], 203 to 205 °C.
As for `CSc1cc(C)nc(SC)c1NC(=O)CCCSc1nc2ccccc2o1` [compound 783, 4-(benzoxazol-2-ylthio)-N-[2,4-bis(methylthio)-6-methyl-3-pyridyl]butanamide], the melting point was in the range of 149 to 150 °C.
For `CSc1cc(C)nc(SC)c1NC(=O)CCCCCSc1nc2ccccc2o1` [compound 785, 6-(benzoxazol-2-ylthio)-N-[2,4-bis(methylthio)-6-methyl-3-pyridyl]hexanamide], the melting point was in the range of 120 to 121 °C.
`CSc1cc(C)nc(SC)c1NC(=O)CCCCCCCCSc1nc2ccccc2o1` [compound 788, 9-(benzoxazol-2-ylthio)-N-[2,4-bis(methylthio)-6-methyl-3-pyridyl]nonanamide] had a melting point of 123 to 124 °C.
For `CSc1cc(C)nc(SC)c1NC(=O)CCCSc1nc2ccccc2s1` [compound 793, 4-(benzothiazol-2-ylthio)-N-[2,4-bis(methylthio)-6-methyl-3-pyridyl]butanamide] the value was 131 to 133 °C; for `CSc1cc(C)nc(SC)c1NC(=O)CCCCCSc1nc2ccccc2s1` [compound 795, 6-(benzothiazol-2-ylthio)-N-[2,4-bis(methylthio)-6-methyl-3-pyridyl]hexanamide], 123 to 125 °C.
For `CSc1cc(C)nc(SC)c1NC(=O)CCCCCCCCSc1nc2ccccc2s1` [compound 798, 9-(benzothiazol-2-ylthio)-N-[2,4-bis(methylthio)-6-methyl-3-pyridyl]nonanamide] the value was 126 to 127 °C; for `CSc1cc(C)nc(SC)c1NC(=O)CCCSc1nc2ccccc2[nH]1` [compound 803, 4-(benzimidazol-2-ylthio)-N-[2,4-bis(methylthio)-6-methyl-3-pyridyl]butanamide], 177 to 179 °C.
For `CSc1cc(C)nc(SC)c1NC(=O)CCCCCSc1nc2ccccc2[nH]1` [compound 805, 6-(benzimidazol-2-ylthio)-N-[2,4-bis(methylthio)-6-methyl-3-pyridyl]hexanamide] the value was 139 to 141 °C; for `CCSc1cc(C)nc(SCC)c1NC(=O)CSc1nc2ccccc2o1` [compound 811, 2-(benzoxazol-2-ylthio)-N-[2,4-bis(ethylthio)-6-methyl-3-pyridyl]acetamide], 143 to 145 °C.
In the case of `CCSc1cc(C)nc(SCC)c1NC(=O)CCCCCSc1nc2ccccc2o1` [compound 815, 6-(benzoxazol-2-ylthio)-N-[2,4-bis(ethylthio)-6-methyl-3-pyridyl]hexanamide], the melting point was 100 to 103 °C.
Take `CCSc1cc(C)nc(SCC)c1NC(=O)CCCCCCCCSc1nc2ccccc2o1` [compound 818, 9-(benzoxazol-2-ylthio)-N-[2,4-bis(ethylthio)-6-methyl-3-pyridyl]nonanamide]: the melting point fell in the range of 84 to 87 °C.
`CCSc1cc(C)nc(SCC)c1NC(=O)CSc1nc2ccccc2s1` [compound 821, 2-(benzothiazol-2-ylthio)-N-[2,4-bis(ethylthio)-6-methyl-3-pyridyl]acetamide] came in with a melting point of 119 to 120 °C.
In turn, `CCSc1cc(C)nc(SCC)c1NC(=O)CCCCCSc1nc2ccccc2s1` [compound 825, 6-(benzothiazol-2-ylthio)-N-[2,4-bis(ethylthio)-6-methyl-3-pyridyl]hexanamide] had a melting point of 81 to 83 °C.
In the case of `CCSc1cc(C)nc(SCC)c1NC(=O)CSc1nc2ccccc2[nH]1` [compound 831, 2-(benzimidazol-2-ylthio)-N-[2,4-bis(ethylthio)-6-methyl-3-pyridyl]acetamide], the melting point was in the range of 182 to 183 °C.
Regarding `Cc1cc(SC(C)C)c(NC(=O)CCCSc2nc3ccccc3o2)c(SC(C)C)n1` [compound 843, 4-(benzoxazol-2-ylthio)-N-[2,4-bis(isopropylthio)-6-methyl-3-pyridyl]butanamide], the melting point is 128 to 129 °C.

For orientation: melting point means the temperature of the solid-liquid transition.

Values taken from patent US7414066B2, “Amide compounds and medications containing the same technical field” (Kowa Company Ltd., priority 1999, dated 2008).
